This is an account of results in patent US12435056B2, “N-lipoic-amino acid or peptide, derivatives and their uses” (NEOSTRATA COMPANY, INC., priority 2016, dated 2025).

Entries after “also recorded” stand apart in the source; their conditions may differ.

For data set [1], the system named is MelanoDerm keratinocyte-melanocyte co-cultures. Put plainly: MelanoDerm study: melanin content and skin lightening in 3D keratinocyte-melanocyte co-cultures. The format is cell-based, human. The note with it: for decrease of melanin content compared to control: darkly pigmented MelanoDerm. As for the experimental part: (§1) MelanoDerms are co-culture models of keratinocytes and melanocytes and were used to test the ability of L20 as an anti-melanogenic compound. MelanoDerms were derived from a normal adult with darkly pigmented skin. These tissues were treated for two weeks on consecutive days with different doses of L20. One set of cultures were used for regression study, where it was taken off L20 after a week of treatment. Two weeks after treatment, the tissues were tested for melanin content and cell viability (FIG. 2a). […] The melanin content was assayed using a melanin standard curve.
(§2) MelanoDerm Study: MelanoDerms study was performed as per company instructions (Mattek, Ashland, MA). MelanoDerm tissues were derived from darkly pigmented skin type. The tissues were stabilized for 24 h and then treated with different doses of L20 (25 ul) in WEP modified vehicle. The MelanoDerms were treated for 2 weeks on consecutive days. Microscopic images were taken every other day. After two weeks, MTT assay was performed using Cell Titer 96® Aqueous One Solution and melanin content was assayed as mentioned in the protocol.

For data set [2] the test system is unchanged. The experiment in a line: MelanoDerm survival (MTT assay). As to conditions: L20 0.5%, two weeks. The format is cell-based, human. As for the experimental part: as §1, §2
For orientation: Formazan colour is commonly taken as a measure of viable cells.

In data set [3] the test system is normal neonatal human epidermal melanocytes. Put plainly: Melanin reduction assay in melanocyte cultures. In kind it is cell-based. As for the experimental part:
(§3) L20 is a glycinamide derivative of lipoic acid and was treated on normal human epidermal melanocytes at different doses for 48 h. Doses more than 0.05% L20 appeared to have moderate toxicity (FIG. 1a). We determined the ability of L20 to inhibit melanin synthesis in melanocyte cultures. L20 was used at a non-toxic dose of 0.001% for 7 days (FIG. 1b), their treatment was carried on consecutive days. After a week of treatment, the melanin was extracted and quantified using a melanin standard curve.
Melanin Reduction assay: Normal human epidermal melanocytes were treated with control or L20 for 7 days, and L20 was replaced on consecutive days. Cells were collected on the 7th day and maintained in Solvable (Perkin Elmer, Akron, OH) overnight at 65 degrees overnight. In parallel, melanin (Sigma, St. Louis, MO) standards were made in Solvable and treated similarly to the samples. Melanin content was then quantified colorimetrically using a Tecan microplate reader at 490 nm.

Data set [4] concerns normal human epidermal melanocytes. The experiment in a line: Cell viability / L20 toxicity assay (Cell Titer 96 Aqueous One Solution). In kind it is cell-based. On the procedure: as §3
Cell culture: Normal human epidermal melanocytes (Lonza, Walkersville, MA) were grown in special melanocyte media MGM4 with supplements (Lonza, Walkersville, MA). Cells were plated and treated with different doses of L20 for 48 h. L20 was initially dissolved in DMSO (100%) and serial dilution were made in media. The stock was diluted a 1000 fold, to have less than […] DMSO in final solution. Microscopic images were taken using 10× magnification. Normal human dermal fibroblasts (Lonza, Walkersville, MA) were grown in special fibroblast growth media (Lonza, Walkersville, MA). […] To test cell viability, Cell Titer 96® Aqueous One Solution Cell Proliferation Assay was used and absorbance was measured colorimetrically at 490 nm using Tecan microplate reader.

Data set [5] has as its system procollagen in EpiDerm-FT fibroblast-keratinocyte co-cultures. Put plainly: Procollagen ELISA in EpiDerm-FT tissue. The format is cell-based, human. The note with it: L20 1% in WEP vehicle, 48 h, p<0.02, FIG. 3. As for the experimental part: Dermal fibroblast plays an important role in photo-aging and skin homeostasis. We determined if L20 had any anti-aging benefit using dermal fibroblasts. Normal human EpiDerm-FT tissue was used in the study. The Epiderm-FT consists of a fully differentiated epidermal and dermal skin layers. It also has 10-15 layers of stratum corneum and also basal, spinous and granular layers. The tissues were treated with vehicle control and L20 (1%), for 48 h. The tissues were used to measure the expression of procollagen using ELISA assay. The levels of procollagen were normalized to total protein.
L20 was prepared as 1% solution in WEP vehicle consisting of water, ethanol and propylene glycol at native pH. […] The tissue samples were digested using cell lysis buffer and the expression levels of procollagen protein were determined. Procollagen was quantified using standard ELISA technique (Takara Bio Inc.).
Epiderm Study: Epiderm-FT (Mattek, Ashland, MA) was used for the study, derived from neonatal foreskin. […] The cell lysate was analyzed for procollagen using ELISA (Takara, Shiga, Japan) as per instructions and normalized to total protein.
(In general: In an ELISA, binding on a coated surface is turned into a signal by an enzyme label.)

In the case of `O=c1cc(CO)occ1O` [Kojic Acid, reference compound], the “decrease of melanin content” value in data set [1] (positive control, dose not given, two weeks, MelanoDerm) came to 27%.
For the compound `NC(=O)CNC(=O)CCCCC1CCSS1` (centres unmarked) [L20, N-lipoic glycinamide], the “toxicity in MelanoDerm (cell viability)” value in data set [2] was “non-toxic”. Moreover, the “melanin extracted and quantified from melanocyte cultures” value in data set [3] (L20 0.001%, 7 days, versus untreated and DMSO control, FIG. 1c) is on record as “no detectable melanin; also recorded: did not have any measureable melanin”. Further, the “melanin synthesis” value is on record as “significantly blocks melanin synthesis” in data set [3] (normal neonatal human epidermal melanocytes, FIGS. 1a-c) and “significantly blocks melanin synthesis” in data set [1] (normal adult human Melanoderm 3D co-cultures, FIGS. 2a-d). Further, the “non-toxic dose in L20 toxicity assay” value in data set [4] (different doses, absorbance at 490 nm) was no more than 0.001%. Moreover, the “doses with moderate toxicity” value in data set [4] (human, 48 h) was “more than 0.05%”. Also, in data set [5], the “procollagen production versus vehicle control, normalized to total protein” value is recorded as “significantly increased; also recorded: significantly induces procollagen synthesis; also recorded: induced pro-collagen”. The “visual skin-lightening effect on melanoderms” value in data set [1] (0.5% and 1%, two weeks, FIG. 2b) is recorded as “significant skin-lightening effect”. In data set [1] (0.5% dose group, taken off L20 after one week of treatment), the “regression study: reversibility of melanin inhibition after removal of L20” value is “reversible inhibition of melanin synthesis”. Also, the “microscopic observation of melanin” value in data set [1] (24 h after the initial treatment) is on record as “decreased melanin; also recorded: inhibited melanin synthesis”. Besides, the “decrease of melanin content compared to control” value in data set [1] (L20 0.1%, two weeks) came out at 44%; in data set [1] (L20 0.5%, two weeks), 56%; in data set [1] (L20 1%, two weeks) it was 60%.
